Patent US8614223B2, “Pyrimidine hydroxy amide compounds as protein deacetylase inhibitors and methods of use thereof” (Acetylon Pharmaceuticals, Inc., priority 2010, dated 2013)

Assays:
HDAC2 = HDAC2 (Homo sapiens (Human), UniProt Q92769); experiment: HDAC enzyme assay, HDAC2; details: for HDAC2 fold over HDAC6 IC50 (selectivity for HDAC6): ratio HDAC2/HDAC6; for IC50: read-out: HDAC2 IC50
HDAC3 = HDAC3 (Homo sapiens (Human), UniProt O15379); experiment: HDAC enzyme assay, HDAC3; details: for HDAC3 fold over HDAC6 IC50 (selectivity for HDAC6): ratio HDAC3/HDAC6; for IC50: read-out: HDAC3 IC50
HDAC3, sequence (O15379 whole entry): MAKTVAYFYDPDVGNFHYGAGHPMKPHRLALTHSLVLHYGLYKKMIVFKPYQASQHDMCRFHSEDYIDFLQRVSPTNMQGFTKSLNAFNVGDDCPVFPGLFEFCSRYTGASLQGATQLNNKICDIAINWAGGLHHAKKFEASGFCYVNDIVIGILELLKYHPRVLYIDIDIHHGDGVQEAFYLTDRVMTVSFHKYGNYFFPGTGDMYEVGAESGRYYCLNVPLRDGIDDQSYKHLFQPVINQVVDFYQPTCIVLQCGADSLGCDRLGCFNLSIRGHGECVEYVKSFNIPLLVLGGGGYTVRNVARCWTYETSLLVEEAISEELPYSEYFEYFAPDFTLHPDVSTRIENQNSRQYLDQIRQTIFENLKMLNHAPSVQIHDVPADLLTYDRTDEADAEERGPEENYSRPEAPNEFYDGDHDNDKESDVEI
HDAC3, sequence (Q9Y618 395-489 partner): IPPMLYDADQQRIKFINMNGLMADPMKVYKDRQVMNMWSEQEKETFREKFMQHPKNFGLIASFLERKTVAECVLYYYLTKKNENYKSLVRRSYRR

HDAC6 = HDAC6 (Homo sapiens (Human), UniProt Q9UBN7); details: read-out: HDAC6 IC50
HDAC6, sequence (Q9UBN7 whole entry): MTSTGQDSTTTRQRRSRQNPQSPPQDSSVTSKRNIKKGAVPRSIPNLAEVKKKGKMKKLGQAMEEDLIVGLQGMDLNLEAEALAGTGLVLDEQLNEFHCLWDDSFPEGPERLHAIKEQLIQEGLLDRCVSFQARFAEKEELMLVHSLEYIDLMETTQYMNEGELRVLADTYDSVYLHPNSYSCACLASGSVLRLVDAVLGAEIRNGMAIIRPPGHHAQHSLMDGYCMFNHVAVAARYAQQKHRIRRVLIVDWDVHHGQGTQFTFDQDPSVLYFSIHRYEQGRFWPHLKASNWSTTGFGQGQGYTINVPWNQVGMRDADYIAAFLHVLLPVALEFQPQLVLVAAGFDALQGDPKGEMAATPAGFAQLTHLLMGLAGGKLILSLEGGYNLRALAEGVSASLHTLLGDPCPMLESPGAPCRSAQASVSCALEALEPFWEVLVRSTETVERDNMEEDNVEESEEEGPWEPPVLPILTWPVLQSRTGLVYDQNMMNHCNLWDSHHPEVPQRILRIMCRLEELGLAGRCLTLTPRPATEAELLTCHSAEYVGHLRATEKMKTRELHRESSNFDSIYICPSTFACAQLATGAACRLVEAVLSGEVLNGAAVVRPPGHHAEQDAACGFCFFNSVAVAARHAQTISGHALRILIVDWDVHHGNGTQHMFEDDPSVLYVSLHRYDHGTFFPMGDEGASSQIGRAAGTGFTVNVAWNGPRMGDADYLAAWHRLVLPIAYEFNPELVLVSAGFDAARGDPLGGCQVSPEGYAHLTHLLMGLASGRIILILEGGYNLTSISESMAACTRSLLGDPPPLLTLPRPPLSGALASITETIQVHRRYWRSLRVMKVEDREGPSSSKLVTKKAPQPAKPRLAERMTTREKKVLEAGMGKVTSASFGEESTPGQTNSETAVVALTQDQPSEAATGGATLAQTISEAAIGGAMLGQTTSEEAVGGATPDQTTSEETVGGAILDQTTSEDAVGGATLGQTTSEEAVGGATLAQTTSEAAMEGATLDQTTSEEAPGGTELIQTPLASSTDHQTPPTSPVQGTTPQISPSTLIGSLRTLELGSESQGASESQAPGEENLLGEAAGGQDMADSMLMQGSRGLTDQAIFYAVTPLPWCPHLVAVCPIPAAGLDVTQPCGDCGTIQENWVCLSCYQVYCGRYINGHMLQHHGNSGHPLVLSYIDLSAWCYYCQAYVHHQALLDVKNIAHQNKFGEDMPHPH

HDAC1 = HDAC1 (Homo sapiens (Human), UniProt Q13547); experiment: HDAC enzyme assay, HDAC1; details: for HDAC1 fold over HDAC6 IC50 (selectivity for HDAC6): ratio HDAC1/HDAC6; for IC50: read-out: HDAC1 IC50
HDAC1, sequence (Q13547 whole entry): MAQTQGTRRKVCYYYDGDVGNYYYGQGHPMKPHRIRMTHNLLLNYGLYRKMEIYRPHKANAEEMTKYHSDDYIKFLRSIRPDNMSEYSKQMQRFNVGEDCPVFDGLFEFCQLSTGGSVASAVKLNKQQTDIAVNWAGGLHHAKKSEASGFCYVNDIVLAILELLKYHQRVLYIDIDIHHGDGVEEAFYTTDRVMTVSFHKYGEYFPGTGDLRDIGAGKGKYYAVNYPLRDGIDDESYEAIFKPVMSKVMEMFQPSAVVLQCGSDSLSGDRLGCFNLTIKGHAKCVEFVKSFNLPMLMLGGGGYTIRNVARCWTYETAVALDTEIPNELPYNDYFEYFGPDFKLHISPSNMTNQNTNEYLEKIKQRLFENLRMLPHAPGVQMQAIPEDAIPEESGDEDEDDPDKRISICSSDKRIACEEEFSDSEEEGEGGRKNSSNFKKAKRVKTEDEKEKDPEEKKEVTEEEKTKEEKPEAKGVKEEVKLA

HDAC2, sequence (Q92769 whole entry): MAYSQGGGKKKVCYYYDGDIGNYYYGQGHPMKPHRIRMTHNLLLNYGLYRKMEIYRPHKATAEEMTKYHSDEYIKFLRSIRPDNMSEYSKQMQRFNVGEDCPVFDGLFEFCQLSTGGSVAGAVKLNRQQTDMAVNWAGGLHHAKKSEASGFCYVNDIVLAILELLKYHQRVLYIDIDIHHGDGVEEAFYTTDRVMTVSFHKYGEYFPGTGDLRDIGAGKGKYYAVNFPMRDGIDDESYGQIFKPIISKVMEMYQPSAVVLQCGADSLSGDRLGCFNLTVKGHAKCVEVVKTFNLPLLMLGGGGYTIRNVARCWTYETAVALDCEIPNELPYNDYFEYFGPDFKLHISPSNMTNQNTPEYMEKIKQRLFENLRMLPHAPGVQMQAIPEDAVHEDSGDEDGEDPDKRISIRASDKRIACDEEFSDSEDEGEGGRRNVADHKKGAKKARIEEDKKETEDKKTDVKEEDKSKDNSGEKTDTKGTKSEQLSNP

Row | Structure (SMILES) | HDAC2 fold over HDAC6 IC50 (selectivity for HDAC6) (HDAC2) | IC50 (HDAC2) | HDAC3 fold over HDAC6 IC50 (selectivity for HDAC6) (HDAC3) | IC50 (HDAC3) | IC50 (HDAC6) | HDAC1 fold over HDAC6 IC50 (selectivity for HDAC6) (HDAC1) | IC50 (HDAC1)
1 | O=C(NO)c1cnc(NC2(c3ccco3)CC2)nc1 [Compound 99] | (75.6x) | 320 nM | (81.5x) | 345 nM | 4 nM | (47.3x) | 200 nM
2 | O=C(NO)c1cnc(Nc2ccccc2Cl)nc1 [Compound 7] | (14.9x) | 629 nM | (14.4x) | 606 nM | 42 nM | (9.9x) | 415 nM
3 | O=C(NO)c1cnc(NCc2cccc(C(F)(F)F)c2)nc1 [Compound 40] | (28.7x) | 56 nM | (36.2x) | 70 nM | 2 nM | (19.8x) | 38 nM
4 | O=C(NO)c1cnc(NCc2ccc(F)c(Cl)c2)nc1 [Compound 53] | (19.2x) | 30 nM | (27.2x) | 43 nM | 2 nM | (14.9x) | 24 nM
5 | O=C(NO)c1cnc(NC2(c3cc(C(F)(F)F)ccc3F)CC2)nc1 [Compound 126] | (3.9x) | 9 nM | (9.8x) | 22 nM | 2 nM | (3.2x) | 7 nM
6 | O=C(NO)c1cnc(NCCc2c(Cl)cccc2Cl)nc1 [Compound 63] | (96.5x) | 1800 nM | (93.7x) | 1750 nM | 19 nM | (77.6x) | 1440 nM
7 | O=C(NO)c1cnc(NCc2c(CO)cccc2CO)nc1 [Compound 51] | (55x) | 624 nM | (33.6x) | 382 nM | 11 nM | (41.2x) | 468 nM
8 | O=C(NO)c1cnc(NC2(c3ccc(F)cc3Cl)CC2)nc1 [Compound 144] | (10.8x) | 34 nM | (18.3x) | 58 nM | 3 nM | (7.9x) | 25 nM
9 | O=C(NO)c1cnc(Nc2cc(C(F)(F)F)cc(C(F)(F)F)c2)nc1 [Compound 15] | (100.8x) | 1390 nM | (134.3x) | 1850 nM | 14 nM | (102.2x) | 1410 nM
10 | O=C(NO)c1cnc(NC2(c3ccccc3)CCOCC2)nc1 [Compound 95] | (217.7x) | 722 nM | (685x) | 2270 nM | 3 nM | (176.7x) | 586 nM
11 | O=C(NO)c1cnc(NC2c3ccccc3-c3ccccc32)nc1 [Compound 111] | (40.5x) | 767 nM | (70x) | 1330 nM | 19 nM | (48x) | 911 nM
12 | O=C(NO)c1cnc(NCCc2cccc(Cl)c2)nc1 [Compound 42] | (24.1x) | 97 nM | (32.3x) | 130 nM | 4 nM | (19.5x) | 78 nM
13 | O=C(NO)c1cnc(NC2(c3ccc(C(F)(F)F)cc3)CC2)nc1 [Compound 135] | (17.7x) | 118 nM | (51.8x) | 344 nM | 7 nM | (22.4x) | 149 nM
14 | CC(C)(Nc1ncc(C(=O)NO)cn1)c1ccccc1 [Compound 50] | (374.6x) | 1520 nM | (547.1x) | 2210 nM | 4 nM | (288.1x) | 1170 nM
15 | O=C(NO)c1cnc(NC2(c3cccc(F)c3)CCCC2)nc1 [Compound 151] | (143.8x) | 476 nM | (414.9x) | 1370 nM | 3 nM | (176.6x) | 584 nM
16 | O=C(NO)c1cnc(NC2(c3cccs3)CCCCC2)nc1 [Compound 154] | (307.8x) | 1600 nM | (647.4x) | 3360 nM | 5 nM | (263.9x) | 1370 nM
17 | O=C(NO)c1cnc(NCc2ccc(Cl)cc2)nc1 [Compound 36] | (31.2x) | 71 nM | (33x) | 75 nM | 2 nM | (17.5x) | 40 nM
18 | O=C(NO)c1cnc(Nc2cccc(-c3ccccc3)c2)nc1 [Compound 28] | (51.5x) | 187 nM | (50.1x) | 181 nM | 4 nM | (30.7x) | 111 nM
19 | O=C(NO)c1cnc(NC2(c3ccc(F)cc3)CCCC2)nc1 [Compound 148] | (193.1x) | 615 nM | (677.2x) | 2160 nM | 3 nM | (182.9x) | 583 nM
20 | O=C(NO)c1cnc(Nc2cc(Cl)ccc2Cl)nc1 [Compound 12] | (30.2x) | 453 nM | (23.5x) | 352 nM | 15 nM | (14.1x) | 212 nM
21 | O=C(NO)c1cnc(NCc2cnccn2)nc1 [Compound 77] | (76.9x) | 340 nM | (98.1x) | 434 nM | 4 nM | (74x) | 328 nM
22 | Cc1cc(C2(Nc3ncc(C(=O)NO)cn3)CC2)ccc1F [Compound 142] | (4x) | 23 nM | (11x) | 64 nM | 6 nM | (3x) | 17 nM
23 | O=C(NO)c1cnc(NC2(c3cc(F)cc(F)c3)CCOCC2)nc1 [Compound 155] | (34x) | 236 nM | (176x) | 1220 nM | 7 nM | (37.9x) | 262 nM
